Laboratory results as given in the supplement of paper PMC8633005.

Legend:
Assay in all cases: drug sensitivity score (DSS) (DSS (unitless, 0-50 scale)); higher = more sensitive (stronger viability inhibition); extreme values may be limits of the assay
Conditions in all cases: 72 h; culture: 2D
SK-MEL-28 = tested on: SK-MEL-28
Method in brief: (§1)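 Drug sensitivity scores, modified area-under-curve measures, were derived from dose-response curves fitted in the in-house Breeze software. The curves came from melanoma cell lines and patient-derived melanoma cultures (1000–1500 cells per well) grown in 2D in 384-well plates holding a 527-compound oncology library. Each compound was dissolved in DMSO or water and tested at five concentrations across a 10,000-fold range. Viability was read by CellTiter-Glo luminescence after 72 h at 37 °C.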

Bowes = tested on: Bowes
Method in brief: as §1

FM-MEL-2 = tested on: FM-MEL-2
Method in brief: as §1

FM-MEL-3 = tested on: FM-MEL-3
Method in brief: as §1

WM852 = tested on: WM852
Method in brief: as §1

SK-MEL-2 = tested on: SK-MEL-2
Method in brief: as §1

WM165 = tested on: WM165
Method in brief: as §1

FM-MEL-6 = tested on: FM-MEL-6
Method in brief: as §1

SMILES	drug sensitivity score (SK-MEL-28)	drug sensitivity score (Bowes)	drug sensitivity score (FM-MEL-2)	drug sensitivity score (FM-MEL-3)	drug sensitivity score (WM852)	drug sensitivity score (SK-MEL-2)	drug sensitivity score (WM165)	drug sensitivity score (FM-MEL-6)
COc1cc2c(cc1-c1c(C)noc1C)ncc1[nH]c(=O)n([C@H](C)c3ccccn3)c12 [I-BET151]	3.1	4.6	5.2	4.7	0	0.3	8.7	5
Cc1nc(NC(=O)N2CCC[C@H]2C(N)=O)sc1-c1ccnc(C(C)(C)C(F)(F)F)c1 [Alpelisib]	1.2	0.3	2.1	2.7	1.9	0	0.6	0.7
CN1CCN(c2nc(C3=C(c4c[nH]c5ccccc45)C(=O)NC3=O)c3ccccc3n2)CC1 [Sotrastaurin]	0	0	3.2	0.3	0	0	0	3.7
CC1=C(/C=C/C(C)=C/C=C/C(C)=C/C(=O)O)C(C)(C)CCC1 [Tretinoin]	0	5.7	0	0.7	0	0	0	0.8
CC(C)C[C@H](NC(=O)[C@@H](COC(C)(C)C)NC(=O)[C@H](Cc1ccc(O)cc1)NC(=O)[C@H](CO)NC(=O)[C@H](Cc1c[nH]c2ccccc12)NC(=O)[C@H](Cc1cnc[nH]1)NC(=O)[C@@H]1CCC(=O)N1)C(=O)N[C@@H](CCCNC(=N)N)C(=O)N1CCC[C@H]1C(=O)NNC(N)=O [Goserelin]	0	0	0	0	0	0	0	0
COc1cc(N2CCC(N3CCN(C)CC3)CC2)ccc1Nc1ncc(Cl)c(Nc2ccccc2P(C)(C)=O)n1 [Brigatinib]	0.5	1.1	0.9	3.3	3.1	0.2	1.5	1.6
Cn1cc(C[C@@H](N)C(=O)O)c2ccccc21 [1-methyl-D-tryptophan]	0	0	0	0	0	0	0	0.6
Cc1c(-c2ccc(N3CCc4cccc(C(=O)Nc5nc6ccccc6s5)c4C3)nc2C(=O)O)cnn1CC12CC3CC(CC(C3)C1)C2	0	0	1.5	6.7	0	0	0	0
COc1nc(N)nc2c1ncn2[C@@H]1O[C@H](CO)[C@@H](O)[C@@H]1O [Nelarabine]	0.1	0	0	0	0.6	0	0	0.1
CN(C)C(=O)c1ccc(S(=O)(=O)c2ccc(NC(=O)[C@@](C)(O)C(F)(F)F)c(Cl)c2)cc1 [AZD7545]	0	2.2	0	0	1.1	0	0	0
Cc1nc(Nc2n[nH]c3c2CN(C(=O)N[C@H](CN(C)C)c2ccccc2)C3(C)C)c2sccc2n1	18.4	18.6	11.8	17.5	9.9	12.3	26.9	14.8
CCNC(=O)c1noc(-c2cc(C(C)C)c(O)cc2O)c1-c1ccc(CN2CCOCC2)cc1 [Luminespib]	9.2	15.2	10.7	21.4	9.7	9.3	20.3	8.1
CN(C(=O)c1ccc(F)cc1C(F)(F)F)C1CCN(c2nnc(-c3ccnn3C)c3ccccc23)CC1 [Taladegib]	0	0	0.4	0	0	0	0	0
Cc1ccc(NS(=O)(=O)c2cccc(C#N)c2)c2[nH]cc(C#N)c12 [E7820]	0	0	1.9	5.5	0	0	5.3	0.7
CO[C@H](C(=O)[C@@H](O)[C@@H](C)O)[C@@H]1Cc2cc3cc(O[C@H]4C[C@@H](O[C@@H]5C[C@@H](O)[C@H](O)[C@@H](C)O5)[C@H](O)[C@@H](C)O4)c(C)c(O)c3c(O)c2C(=O)[C@H]1O[C@H]1C[C@@H](O[C@@H]2C[C@@H](O)[C@@H](O[C@@H]3C[C@](C)(O)[C@H](O)[C@@H](C)O3)[C@@H](C)O2)[C@H](O)[C@@H](C)O1 [Plicamycin]	8.6	26.4	12.7	21.3	3.2	16.8	15.7	7.4
CC(C)Oc1ccc(C(=O)N[C@H](CNC(=O)CN(C)C)Cc2ccc(-c3cn4cccc([C@H](C)O)c4n3)cc2)cc1Cl	5.3	19.2	7.3	6.3	9.5	13.5	13.7	4.7
CO[C@@H]1[C@H](N(C)C(=O)c2ccccc2)C[C@H]2O[C@]1(C)n1c3ccccc3c3c4c(c5c6ccccc6n2c5c31)C(=O)NC4 [Midostaurin]	4.3	5.1	3.5	5.4	8.1	2.9	14.6	2.3
CCN1CCN(Cc2ccc(Nc3ncc(F)c(-c4cc(F)c5nc(C)n(C(C)C)c5c4)n3)nc2)CC1 [Abemaciclib]	8.7	9.6	4	7.2	5.3	0	6.6	0
CO[C@H]1CC[C@H](N2C(=O)CNc3ncc(-c4ccc(C(C)(C)O)nc4)nc32)CC1 [CC-223]	5.2	4.1	7.4	5.1	4.2	3.1	7.1	5.9
O=C(CCCCCCC(=O)Nc1ccccc1)NO [Vorinostat]	7.9	0.7	5.6	9.2	4.4	6.1	9.1	8.4

SMILES	drug sensitivity score (SK-MEL-28)	drug sensitivity score (Bowes)	drug sensitivity score (FM-MEL-2)	drug sensitivity score (FM-MEL-3)	drug sensitivity score (WM852)	drug sensitivity score (SK-MEL-2)	drug sensitivity score (WM165)	drug sensitivity score (FM-MEL-6)
CC(=O)OC[C@H]1O[C@@H]([S-])[C@H](OC(C)=O)[C@@H](OC(C)=O)[C@@H]1OC(C)=O.CCP(CC)CC.[Au+] [Auranofin]	3.2	12.4	0.5	9	5.6	3.7	9.5	2.6
O=C1Cc2cc(C(=O)NC3C[C@H]4CC[C@@H](C3)N4S(=O)(=O)CC3CCN(CCCC(F)(F)F)CC3)c(Cl)cc2N1 (stereo not given in full)	0.2	0.3	0	0.7	0	0	0	0
CCN1C(=O)CNc2ncc(-c3ccc(-c4nc[nH]n4)nc3C)nc21 [CC-115]	6.5	8.2	10.7	8.5	5	9.8	10.4	9.5
CCn1c(-c2nonc2N)nc2cnc(Oc3cccc(NC(=O)c4ccc(OCCN5CCOCC5)cc4)c3)cc21	1.1	0	2.6	4.3	4.6	0	5.2	0.3
CC(C)Cn1cnc2c(N)nc3ccccc3c21 [Imiquimod]	0	4.7	0	0	0.1	0	0	0
Cc1sc2c(c1C)C(c1ccc(Cl)cc1)=N[C@@H](CC(=O)NCCCCNC(=O)COc1cccc3c1C(=O)N(C1CCC(=O)NC1=O)C3=O)c1nnc(C)n1-2 (stereo not given in full) [dBET1]	3	9.1	3.5	7.1	0	0	10.3	4.6
CC[C@H](CO)Nc1nc(NCc2ccccc2)c2ncn(C(C)C)c2n1 [Seliciclib]	0	2.6	0.8	0	0	0	1.7	0
O=C(O)CNC(=O)c1c(O)c2ccccc2n(Cc2ccccc2)c1=O [IOX-2]	0	0	0	0	0.2	0	0	0
Clc1ccccc1C(c1ccccc1)(c1ccccc1)n1cccn1 [TRAM-34]	0	0	0	0	0	0	0	0
CC(C)(C)c1nc(-c2cccc(NS(=O)(=O)c3c(F)cccc3F)c2F)c(-c2ccnc(N)n2)s1 [Dabrafenib]	20.5	1.1	1.5	2.7	1.1	0.9	18.1	0
Cc1cccc(CC(=O)N2CCc3c2ccc(-c2cn(C)c4ncnc(N)c24)c3F)n1	0	0	0	0.9	3.7	0	0	0.1
O=C1CCC(N2C(=O)c3ccccc3C2=O)C(=O)N1 (stereo not given) [Thalidomide]	0	0	0	0	0	0	0	0
NC(=O)Nc1cc(-c2cccc(F)c2)sc1C(=O)N[C@H]1CCCNC1 [AZD7762]	2.2	7.7	0.2	6.1	8.4	4.2	4.7	6.5
O=C(CCCCCCC(=O)Nc1ccc([C@H]2O[C@@H](CSc3nc(-c4ccccc4)c(-c4ccccc4)o3)C[C@@H](c3ccc(CO)cc3)O2)cc1)NO [Tubacin]	0	4.9	0.9	0	3.9	0.8	4.7	0.2
Cc1ccc(C(=O)Nc2ccc(Oc3cc4cnn(C)c4cc3-c3cn[nH]c3)c(F)c2)c(=O)n1-c1ccc(F)cc1 [Merestinib]	0.4	0	0	0	2.2	0	0	0
O=C1NC(=O)[C@@H](c2cn3c4c(cccc24)CCC3)[C@@H]1c1c[nH]c2ccccc12 [Tivantinib]	2.1	3.6	1.9	2.3	3.1	3.8	3.1	3.2
CCCOc1ccn2c(C(C)=O)cc(-c3ccccc3S(C)(=O)=O)c2c1 [GSK2801]	0	0.7	0.1	0	0	0	0	0
CC/C(=C(\c1ccccc1)c1ccc(OCCN(C)C)cc1)c1ccccc1 [Tamoxifen]	2.4	0	3.7	5.6	2.3	0	3.8	4.4
COc1cc2c(Oc3ccc(NC(=O)C4(C(=O)Nc5ccc(F)cc5)CC4)cc3F)ccnc2cc1OCCCN1CCOCC1 [Foretinib]	2.6	5.1	3.1	3.2	2.2	0	2.6	0.9
Cc1ccc(NC(=O)c2ccc(CN3CCN(C)CC3)cc2)cc1Nc1nc(-c2cccnc2)cs1 [Masitinib]	3.5	2.3	6.4	4.3	5.7	2.1	3.3	4.4
